From PubChem BioAssay AID248 (DTP/NCI, 2004)
Where “and” joins values, the source holds several entries; their conditions need not be identical. Equal entries are not always repeated. Toxic doses and inconclusive results are not listed. No stated cut-off is given here; in the data, active means T/C of 150% or more; inactive means T/C below 125%.

Tested on: L1210 leukemia ip in BDF1 mice, survival T/C
Experiment: NCI In Vivo Anticancer Drug Screen. Data for tumor model L1210 Leukemia (intraperitoneal) in B6D2F1 (BDF1) mice
Conditions: endpoint: mean survival time, higher = longer survival
How it was run: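 Tumor was transplanted into mice, which were then dosed with test compound or vehicle alone. Survival was recorded for each group, and the treated figure was expressed relative to the control figure.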

[1] = dose: 100.0 mg/kg/injection, schedule: Q01DX009 (ip), vehicle: Klucel (hydroxypropylcellulose) (HPC)
[2] = dose: 100.0 mg/kg/injection, schedule: Q04DX002 (ip), vehicle: Klucel (hydroxypropylcellulose) (HPC)
[3] = dose: 200.0 mg/kg/injection, schedule: Q01DX009 (ip), vehicle: Klucel (hydroxypropylcellulose) (HPC)
[4] = dose: 400.0 mg/kg/injection, schedule: Q01DX009 (ip), vehicle: Klucel (hydroxypropylcellulose) (HPC)
[5] = dose: 100.0 mg/kg/injection, schedule: Q04DX003 (ip), vehicle: Klucel (hydroxypropylcellulose) (HPC)
[6] = dose: 100.0 mg/kg/injection, schedule: Q01DX009 (ip), vehicle: saline with Tween-80
[7] = dose: 200.0 mg/kg/injection, schedule: Q01DX009 (ip), vehicle: saline with Tween-80
[8] = dose: 100.0 mg/kg/injection, schedule: Q01DX001 (ip), vehicle: Klucel (hydroxypropylcellulose) (HPC)
[9] = dose: 400.0 mg/kg/injection, schedule: Q01DX001 (ip), vehicle: Klucel (hydroxypropylcellulose) (HPC)
[10] = dose: 100.0 mg/kg/injection, schedule: Q01DX001 (ip), vehicle: saline
[11] = dose: 25.0 mg/kg/injection, schedule: Q01DX009 (ip), vehicle: saline with Tween-80

Measured: T/C

Nc1nc(N)nc(N)n1
inactive: dose: 50.0 mg/kg/injection, schedule: Q04DX002 (ip), vehicle: Klucel (hydroxypropylcellulose) (HPC) 94 % of control | [1] 92 % of control and 113 % of control | [2] 94 % of control | [3] 92 % of control and 99 % of control | dose: 200.0 mg/kg/injection, schedule: Q04DX002 (ip), vehicle: Klucel (hydroxypropylcellulose) (HPC) 94 % of control and 105 % of control | [4] 95 % of control and 99 % of control | dose: 400.0 mg/kg/injection, schedule: Q04DX002 (ip), vehicle: Klucel (hydroxypropylcellulose) (HPC) 102 % of control | dose: 800.0 mg/kg/injection, schedule: Q01DX009 (ip), vehicle: Klucel (hydroxypropylcellulose) (HPC) 96 % of control | dose: 1000.0 mg/kg/injection, schedule: Q01DX009 (ip), vehicle: Klucel (hydroxypropylcellulose) (HPC) 103 % of control

COC(=O)c1ccccc1NC(=O)c1ccccc1C(=O)O
inactive: dose: 25.0 mg/kg/injection, schedule: Q01DX009 (ip), vehicle: Klucel (hydroxypropylcellulose) (HPC) 100 % of control | dose: 50.0 mg/kg/injection, schedule: Q01DX009 (ip), vehicle: Klucel (hydroxypropylcellulose) (HPC) 103 % of control | [1] 93 % of control and 102 % of control | [2] 98 % of control | dose: 150.0 mg/kg/injection, schedule: Q01DX009 (ip), vehicle: Klucel (hydroxypropylcellulose) (HPC) 100 % of control | dose: 225.0 mg/kg/injection, schedule: Q01DX009 (ip), vehicle: Klucel (hydroxypropylcellulose) (HPC) 97 % of control | dose: 335.0 mg/kg/injection, schedule: Q01DX009 (ip), vehicle: Klucel (hydroxypropylcellulose) (HPC) 102 % of control

CCOC(=O)C(C)Nc1ccccc1 (centres undefined)
inactive: [1] 100 % of control | [5] 103 % of control | [3] 104 % of control | dose: 200.0 mg/kg/injection, schedule: Q04DX003 (ip), vehicle: Klucel (hydroxypropylcellulose) (HPC) 118 % of control | [4] 98 % of control | dose: 400.0 mg/kg/injection, schedule: Q04DX003 (ip), vehicle: Klucel (hydroxypropylcellulose) (HPC) 98 % of control

O=[N+]([O-])c1ccc(S(=O)(=O)OCc2ccccc2OS(=O)(=O)c2ccc([N+](=O)[O-])cc2)cc1
inactive: dose: 25.0 mg/kg/injection, schedule: Q01DX009 (ip), vehicle: saline sonified 103 % of control | dose: 50.0 mg/kg/injection, schedule: Q01DX009 (ip), vehicle: saline sonified 95 % of control | dose: 100.0 mg/kg/injection, schedule: Q01DX009 (ip), vehicle: saline sonified 100 % of control | [5] 91 % of control

Cc1cc(Cl)cc(C)c1OC(=O)Nc1cccc(C(F)(F)F)c1
inactive: [6] 112 % of control | [7] 106 % of control | dose: 400.0 mg/kg/injection, schedule: Q01DX009 (ip), vehicle: saline with Tween-80 101 % of control

O=S(=O)(OCC1CC2C=CC1C2)c1ccc(Br)cc1 (centres undefined)
inactive: dose: 100.0 mg/kg/injection, schedule: Q04DX003 (ip), vehicle: other 86 % of control | dose: 200.0 mg/kg/injection, schedule: Q04DX003 (ip), vehicle: other 89 % of control | dose: 400.0 mg/kg/injection, schedule: Q04DX003 (ip), vehicle: other 89 % of control

O=S(=O)(OCCCl)OCCCl
inactive: dose: 25.0 mg/kg/injection, schedule: Q01DX010 (ip), vehicle: olive oil, sesame oil, peanut oil 100 % of control | dose: 37.5 mg/kg/injection, schedule: Q01DX010 (ip), vehicle: olive oil, sesame oil, peanut oil 102 % of control | dose: 50.0 mg/kg/injection, schedule: Q01DX010 (ip), vehicle: olive oil, sesame oil, peanut oil 97 % of control

Cc1cc2cccc(CN)c2cc1C
inactive: [8] 93 % of control

[Cu+2].[NH-]C(CS)C(=O)O.[NH-]C(CS)C(=O)O (centres undefined)
inactive: dose: 3.13 mg/kg/injection, schedule: Q04DX002 (ip), vehicle: saline with Tween-80 97 % of control | dose: 6.25 mg/kg/injection, schedule: Q04DX002 (ip), vehicle: saline with Tween-80 93 % of control and 90 % of control | dose: 25.0 mg/kg/injection, schedule: Q04DX002 (ip), vehicle: saline with Tween-80 90 % of control | dose: 125.0 mg/kg/injection, schedule: Q04DX002 (ip), vehicle: saline with Tween-80 93 % of control

Nc1cccc(OCCCn2cc(-c3ccc(Cl)c(Cl)c3)c(N)nc2=O)c1
inactive: [8] 99 % of control | dose: 200.0 mg/kg/injection, schedule: Q01DX001 (ip), vehicle: Klucel (hydroxypropylcellulose) (HPC) 92 % of control | [9] 100 % of control

COc1ccc(NC(=S)Nc2ccccc2S)cc1
inactive: [6] 90 % of control | dose: 100.0 mg/kg/injection, schedule: Q04DX002 (ip), vehicle: saline with Tween-80 97 % of control | [7] 97 % of control | dose: 200.0 mg/kg/injection, schedule: Q04DX002 (ip), vehicle: saline with Tween-80 97 % of control | dose: 400.0 mg/kg/injection, schedule: Q04DX002 (ip), vehicle: saline with Tween-80 97 % of control

CC(Br)CN1CCOCC1 (centres undefined)
inactive: [10] 103 % of control

Cc1ccc(C(O)c2ccccc2)cc1 (centres undefined)
inactive: [6] 98 % of control | [7] 97 % of control

COC(=O)/C=C/C(Oc1ccc(C)cc1)C(=O)OC (centres undefined)
inactive: dose: 75.0 mg/kg/injection, schedule: Q04DX003 (ip), vehicle: other 98 % of control | dose: 150.0 mg/kg/injection, schedule: Q04DX003 (ip), vehicle: other 96 % of control | dose: 300.0 mg/kg/injection, schedule: Q04DX003 (ip), vehicle: other 98 % of control

C1=Cc2ccccc2/C1=C/c1cccc(/C=C2\C=Cc3ccccc32)c1
inactive: dose: 6.25 mg/kg/injection, schedule: Q01DX009 (ip), vehicle: saline with Tween-80 101 % of control | dose: 12.5 mg/kg/injection, schedule: Q01DX009 (ip), vehicle: saline with Tween-80 97 % of control | dose: 12.5 mg/kg/injection, schedule: Q04DX003 (ip), vehicle: saline with Tween-80 100 % of control | [11] 97 % of control | dose: 25.0 mg/kg/injection, schedule: Q04DX003 (ip), vehicle: saline with Tween-80 95 % of control

COc1cc(C)c2oc(C)nc2c1
inactive: [8] 92 % of control | [9] 92 % of control

CC(C)(c1ccc(OCC2CO2)cc1)c1ccc(OCC2CO2)cc1 (centres undefined)
inactive: [10] 101 % of control | dose: 200.0 mg/kg/injection, schedule: Q01DX001 (ip), vehicle: saline 109 % of control | dose: 400.0 mg/kg/injection, schedule: Q01DX001 (ip), vehicle: saline 96 % of control

Cn1nc(C(N)=O)c2c(N)ncnc21
inactive: dose: 7.5 mg/kg/injection, schedule: Q04DX002 (ip), vehicle: Klucel (hydroxypropylcellulose) (HPC) 96 % of control | dose: 15.0 mg/kg/injection, schedule: Q01DX001 (ip), vehicle: carboxymethylcellulose (CMC) 98 % of control | dose: 15.0 mg/kg/injection, schedule: Q04DX002 (ip), vehicle: Klucel (hydroxypropylcellulose) (HPC) 92 % of control | dose: 30.0 mg/kg/injection, schedule: Q01DX001 (ip), vehicle: carboxymethylcellulose (CMC) 102 % of control | dose: 30.0 mg/kg/injection, schedule: Q04DX002 (ip), vehicle: Klucel (hydroxypropylcellulose) (HPC) 96 % of control

Cc1cc(C)[nH]n1
inactive: dose: 100.0 mg/kg/injection, schedule: Q01DX009 (ip), vehicle: saline 103 % of control | dose: 200.0 mg/kg/injection, schedule: Q01DX009 (ip), vehicle: saline 104 % of control | dose: 400.0 mg/kg/injection, schedule: Q01DX009 (ip), vehicle: saline 100 % of control

NC(=O)C1(Cl)CC2C=CC1C2 (centres undefined)
inactive: [11] 90 % of control | dose: 25.0 mg/kg/injection, schedule: Q04DX003 (ip), vehicle: saline 100 % of control | dose: 50.0 mg/kg/injection, schedule: Q01DX009 (ip), vehicle: saline with Tween-80 95 % of control | dose: 50.0 mg/kg/injection, schedule: Q04DX003 (ip), vehicle: saline 99 % of control | [6] 97 % of control | dose: 100.0 mg/kg/injection, schedule: Q04DX003 (ip), vehicle: saline 110 % of control

c1ccc(CNCc2ccc(CNCc3ccccc3)cc2)cc1
inactive: dose: 100.0 mg/kg/injection, schedule: Q04DX003 (ip), vehicle: saline with Tween-80 93 % of control | dose: 200.0 mg/kg/injection, schedule: Q04DX003 (ip), vehicle: saline with Tween-80 97 % of control | dose: 400.0 mg/kg/injection, schedule: Q04DX003 (ip), vehicle: saline with Tween-80 98 % of control

CCCC(NCc1ccccc1)C(=O)O (centres undefined)
inactive: dose: 100.0 mg/kg/injection, schedule: Q01DX009 (ip), vehicle: acetone 90 % of control | dose: 200.0 mg/kg/injection, schedule: Q01DX009 (ip), vehicle: acetone 90 % of control | dose: 400.0 mg/kg/injection, schedule: Q01DX009 (ip), vehicle: acetone 90 % of control
